Results taken from patent publication US10709707B2, “Methods of treating ocular conditions” (Oyster Point Pharma, Inc., priority 2016, dated 2020).
Entries after “also recorded” stand apart in the source; their conditions may differ.

Tests used:
[1] = target: T1, α4β2 nicotinic acetylcholine receptor (Rattus norvegicus, UniProt P09483+P12390); test: Receptor binding α4β2, inhibition of [3H]-(S)-nicotine binding, rat brain membranes
T1 construct: from tissue; host or cells: rat brain cortical membranes
T1 sequence (P09483 31-630): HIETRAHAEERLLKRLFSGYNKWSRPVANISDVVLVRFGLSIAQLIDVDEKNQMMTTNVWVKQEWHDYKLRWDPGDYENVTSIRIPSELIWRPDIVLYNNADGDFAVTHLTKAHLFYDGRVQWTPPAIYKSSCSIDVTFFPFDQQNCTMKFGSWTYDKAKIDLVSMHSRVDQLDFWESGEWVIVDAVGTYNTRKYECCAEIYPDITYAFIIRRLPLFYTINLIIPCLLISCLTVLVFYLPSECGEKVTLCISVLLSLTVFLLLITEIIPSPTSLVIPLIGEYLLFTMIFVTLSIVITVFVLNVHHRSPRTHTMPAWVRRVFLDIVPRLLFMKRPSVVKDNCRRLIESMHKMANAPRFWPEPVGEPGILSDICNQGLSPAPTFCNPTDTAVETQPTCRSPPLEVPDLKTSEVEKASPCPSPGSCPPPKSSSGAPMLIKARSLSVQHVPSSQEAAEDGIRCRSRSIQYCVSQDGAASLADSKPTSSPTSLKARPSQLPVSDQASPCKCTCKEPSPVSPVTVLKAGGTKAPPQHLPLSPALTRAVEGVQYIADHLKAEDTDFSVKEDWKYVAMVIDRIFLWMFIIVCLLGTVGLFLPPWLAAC
T1 sequence (P12390 25-500): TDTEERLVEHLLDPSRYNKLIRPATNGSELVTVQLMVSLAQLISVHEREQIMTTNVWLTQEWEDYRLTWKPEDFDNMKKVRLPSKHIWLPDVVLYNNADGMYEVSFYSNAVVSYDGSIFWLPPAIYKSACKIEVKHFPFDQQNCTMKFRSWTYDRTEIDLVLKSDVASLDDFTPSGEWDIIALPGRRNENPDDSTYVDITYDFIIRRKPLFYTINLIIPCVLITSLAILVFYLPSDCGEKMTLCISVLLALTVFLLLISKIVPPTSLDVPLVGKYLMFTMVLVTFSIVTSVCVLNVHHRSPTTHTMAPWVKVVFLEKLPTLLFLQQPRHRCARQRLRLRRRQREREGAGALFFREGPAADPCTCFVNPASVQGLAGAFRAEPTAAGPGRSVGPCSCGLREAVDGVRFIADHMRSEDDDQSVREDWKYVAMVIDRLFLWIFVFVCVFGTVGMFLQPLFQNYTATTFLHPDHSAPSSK

muscle receptor (α1β1δγ) = target: T2, muscle receptor (α1β1δγ) (Homo sapiens, UniProt P02708+P07510+Q07001); test: Receptor binding muscle receptor, TE-671 membranes
T2 construct: endogenous in cells; host or cells: TE671 (TE-671) cells / membranes (per the earlier reading)
T2 sequence (P11230 24-501): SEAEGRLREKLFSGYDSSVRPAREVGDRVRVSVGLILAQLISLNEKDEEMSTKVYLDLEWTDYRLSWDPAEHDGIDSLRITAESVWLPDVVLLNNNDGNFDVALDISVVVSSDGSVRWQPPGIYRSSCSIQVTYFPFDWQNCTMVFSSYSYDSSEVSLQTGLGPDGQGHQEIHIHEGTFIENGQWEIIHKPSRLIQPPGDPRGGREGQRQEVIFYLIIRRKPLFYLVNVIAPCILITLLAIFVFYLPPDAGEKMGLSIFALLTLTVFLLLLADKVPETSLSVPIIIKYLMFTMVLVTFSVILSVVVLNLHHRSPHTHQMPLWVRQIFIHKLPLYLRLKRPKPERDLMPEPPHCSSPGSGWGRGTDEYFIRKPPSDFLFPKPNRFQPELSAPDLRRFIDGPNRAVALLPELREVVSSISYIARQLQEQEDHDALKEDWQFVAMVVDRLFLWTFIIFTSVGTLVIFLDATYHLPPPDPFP
T2 sequence (P02708 21-457): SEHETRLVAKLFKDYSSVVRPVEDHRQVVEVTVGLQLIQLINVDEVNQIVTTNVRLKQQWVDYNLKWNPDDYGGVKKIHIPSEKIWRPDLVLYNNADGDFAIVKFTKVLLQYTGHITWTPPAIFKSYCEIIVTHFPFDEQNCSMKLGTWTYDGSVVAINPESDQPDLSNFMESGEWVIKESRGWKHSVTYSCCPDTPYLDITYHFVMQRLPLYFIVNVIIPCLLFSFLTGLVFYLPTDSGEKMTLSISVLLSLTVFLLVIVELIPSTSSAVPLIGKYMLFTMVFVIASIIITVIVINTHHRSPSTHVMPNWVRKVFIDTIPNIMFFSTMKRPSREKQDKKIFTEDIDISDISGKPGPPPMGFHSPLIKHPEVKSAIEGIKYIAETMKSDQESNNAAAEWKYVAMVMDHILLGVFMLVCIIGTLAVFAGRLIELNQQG
T2 sequence (Q07001 22-517): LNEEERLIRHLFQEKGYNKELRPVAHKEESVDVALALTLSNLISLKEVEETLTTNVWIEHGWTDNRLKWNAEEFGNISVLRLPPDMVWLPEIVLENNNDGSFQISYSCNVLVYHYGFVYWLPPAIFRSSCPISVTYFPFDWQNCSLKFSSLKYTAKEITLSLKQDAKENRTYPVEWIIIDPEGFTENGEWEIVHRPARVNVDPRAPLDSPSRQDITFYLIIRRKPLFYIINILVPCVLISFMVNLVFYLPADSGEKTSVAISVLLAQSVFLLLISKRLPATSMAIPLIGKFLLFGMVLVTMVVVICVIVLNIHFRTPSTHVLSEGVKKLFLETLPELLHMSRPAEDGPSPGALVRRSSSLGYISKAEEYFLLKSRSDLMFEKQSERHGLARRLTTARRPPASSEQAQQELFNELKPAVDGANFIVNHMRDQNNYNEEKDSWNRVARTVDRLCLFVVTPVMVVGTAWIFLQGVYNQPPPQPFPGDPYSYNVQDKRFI
T2 sequence (P07510 23-517): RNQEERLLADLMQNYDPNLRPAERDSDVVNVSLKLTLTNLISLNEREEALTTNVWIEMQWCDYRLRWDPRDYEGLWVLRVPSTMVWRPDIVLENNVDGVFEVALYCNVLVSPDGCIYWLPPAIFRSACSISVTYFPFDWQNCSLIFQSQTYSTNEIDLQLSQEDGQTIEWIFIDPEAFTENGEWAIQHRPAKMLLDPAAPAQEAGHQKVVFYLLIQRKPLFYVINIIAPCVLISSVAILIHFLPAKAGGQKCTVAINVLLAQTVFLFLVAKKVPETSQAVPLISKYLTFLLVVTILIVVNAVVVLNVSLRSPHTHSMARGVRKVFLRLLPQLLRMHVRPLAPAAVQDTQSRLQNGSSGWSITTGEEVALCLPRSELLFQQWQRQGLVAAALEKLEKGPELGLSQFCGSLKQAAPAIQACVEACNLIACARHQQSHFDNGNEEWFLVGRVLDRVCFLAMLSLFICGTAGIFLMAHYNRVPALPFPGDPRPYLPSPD

a4b4 = a4b4 (Homo sapiens, UniProt P30926+P43681); test: Receptor binding a4b4
Sequence of a4b4 (P43681 29-627 limits assumed): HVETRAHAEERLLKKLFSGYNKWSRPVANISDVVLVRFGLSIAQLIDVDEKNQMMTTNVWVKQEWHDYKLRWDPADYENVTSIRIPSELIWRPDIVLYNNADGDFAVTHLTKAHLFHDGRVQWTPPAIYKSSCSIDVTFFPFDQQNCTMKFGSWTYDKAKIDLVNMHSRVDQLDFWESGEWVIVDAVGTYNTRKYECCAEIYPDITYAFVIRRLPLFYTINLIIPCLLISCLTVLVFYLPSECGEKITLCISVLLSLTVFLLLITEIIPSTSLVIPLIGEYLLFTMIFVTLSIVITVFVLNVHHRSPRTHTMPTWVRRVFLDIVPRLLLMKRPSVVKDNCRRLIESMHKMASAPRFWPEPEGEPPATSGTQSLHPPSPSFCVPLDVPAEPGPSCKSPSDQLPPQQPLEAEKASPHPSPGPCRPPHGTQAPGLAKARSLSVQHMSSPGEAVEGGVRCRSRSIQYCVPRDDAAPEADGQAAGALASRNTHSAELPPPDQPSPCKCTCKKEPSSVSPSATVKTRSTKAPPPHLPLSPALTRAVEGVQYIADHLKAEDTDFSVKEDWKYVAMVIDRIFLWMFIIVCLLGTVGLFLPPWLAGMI
Sequence of a4b4 (P30926 22-498): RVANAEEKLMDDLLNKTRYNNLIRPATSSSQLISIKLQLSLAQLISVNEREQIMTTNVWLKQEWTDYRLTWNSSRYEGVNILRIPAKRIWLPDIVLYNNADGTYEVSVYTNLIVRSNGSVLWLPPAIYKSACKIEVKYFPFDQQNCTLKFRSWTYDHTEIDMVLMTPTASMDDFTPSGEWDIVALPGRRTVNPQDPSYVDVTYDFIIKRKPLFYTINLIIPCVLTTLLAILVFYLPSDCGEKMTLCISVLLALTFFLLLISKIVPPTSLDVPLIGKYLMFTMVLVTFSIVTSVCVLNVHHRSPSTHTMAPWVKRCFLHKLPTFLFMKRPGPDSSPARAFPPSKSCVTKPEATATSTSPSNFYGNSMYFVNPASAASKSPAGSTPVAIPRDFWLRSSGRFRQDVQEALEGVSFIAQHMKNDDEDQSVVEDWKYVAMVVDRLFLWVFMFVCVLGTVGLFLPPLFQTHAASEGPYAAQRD

[2] = target: T3, ganglionic receptor (α3β4) (Homo sapiens, UniProt P30926+P32297); test: Receptor function ganglionic receptors (human), SH-SY5Y and IMR-32 cells; type: cell-based
T3 construct: endogenous in cells
T3 sequence (P32297 32-505): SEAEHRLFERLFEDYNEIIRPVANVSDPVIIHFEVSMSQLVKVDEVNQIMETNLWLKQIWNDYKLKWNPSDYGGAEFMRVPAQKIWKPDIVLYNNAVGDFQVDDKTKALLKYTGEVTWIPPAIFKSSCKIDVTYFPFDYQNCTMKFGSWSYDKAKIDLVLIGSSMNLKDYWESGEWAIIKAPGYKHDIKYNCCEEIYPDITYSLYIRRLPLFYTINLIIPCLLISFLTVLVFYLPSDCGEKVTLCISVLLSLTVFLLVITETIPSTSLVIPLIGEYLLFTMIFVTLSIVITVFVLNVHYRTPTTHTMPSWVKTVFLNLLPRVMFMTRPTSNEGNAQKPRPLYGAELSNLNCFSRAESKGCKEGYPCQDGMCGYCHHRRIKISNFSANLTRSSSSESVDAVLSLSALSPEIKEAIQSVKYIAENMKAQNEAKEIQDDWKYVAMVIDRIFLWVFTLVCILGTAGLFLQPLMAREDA
T3 sequence (P30926 22-498): as the sequence (P30926 22-498) above

[3] = system: muscarinic (non-selective) sites; test: In vitro binding (off-target receptors) at 10 μM; conditions: hemigalactarate salt
[4] = target: remaining muscarinic subtypes; test: Follow-up dose response binding assay (CEREP)
[5] = system: STZ rat model of diabetic neuropathy; test: Mechanical allodynia, STZ rat model of diabetic neuropathy; type: in vivo, Rat: Sprague-Dawley
[6] = CNS safety pharmacology, body temperature; type: in vivo, Rat: Sprague-Dawley; conditions: po, doses up to and including 100 mg/kg
[7] = Cardiovascular safety, guinea pig iv; type: in vivo; conditions: guinea pig, in vivo; intravenous
[8] = system: blood pressure, heart rate, ECG; test: Cardiovascular safety, guinea pig iv; type: in vivo
Distribution coefficient = type: physicochemical; conditions: pH 7.4
[9] = 7-day pilot intranasal toxicity and toxicokinetic study in rats; conditions: intranasal TID
Experimental: The study design was as follows:
The following parameters and end points were evaluated in this study; clinical signs, body weights, body weight gain, food consumption, ophthalmology, toxicokinetic parameters, gross necropsy findings, organ weights, and histopathologic examination of select tissues, including nasal cavity at levels I-IV and detailed ocular histopathology for all dose groups: histopathology for brain, pharynx, larynx, trachea, lung, and select target tissues (i.e., adrenal gland, liver, and spleen) that were identified in a GLP 13-week oral toxicity study in rats (DSE 2004-0356) in group 1 and 4 animals, and gross lesions.

[10] = Human ganglion-type (a3b4*), Ca++ Flux
[11] = Female, Day 1, 0.9 mg/day (0.5%)
[12] = Female, Day 1, 10.8 mg/day (6%)
[13] = Female, Day 7, 0.9 mg/day (0.5%)
[14] = Female, Day 7, 10.8 mg/day (6%)

In the case of `C(=C\[C@H]1CCNC1)/c1cncnc1` [Compound 1, (R)-5-((E)-2-pyrrolidin-3-ylvinyl)pyrimidine], the Ki ([1]; Rat a4b2, assay and tissue type not given) is reported as 0.034 µM, the Ki ([1]; [3H]-S-nicotine, rat brain cortical membranes) is reported as 0.027 µM and the Ki (muscle receptor (α1β1δγ)) is reported as 36 µM. The Ki (a4b4) was 0.68 µM, the EC50 [2, 10] was 13 µM and the Emax [2, 10] was 150%. The EC50 ([2]; IMR-32 cells) was 22 µM, the EC50 ([2]; Rb+ Flux, IMR cells) was 22 µM and the Emax ([2]; Rb+ Flux, IMR cells) was 79%. The EC50 ([2]; Rb+ Flux, SHSY5Y cells) was 18 µM, the EC50 ([2]; SH-SY5Y cells) was 18 µM and the Emax vs. nicotine ([2]; SH-SY5Y cells) was 60%. The Emax ([2]; SH-SY5Y, Rb+ Flux, SHSY5Y cells) was 60%, the agonist type ([2]; α3β4 nicotine receptor subtype) was “full agonist” and the binding affinity [3] was “sites (51%)”. The Ki [4] was > 10 µM, the “allodynia, acute dosing” value ([5]; 0.5 and 2 hr post-dosing, Compound 1 0.1 and 1 mg/kg po, Gabapentin 100 mg/kg ip) was “significantly reversed; also recorded: Acute Dosing - Compound 1 reversed” and the onset of action ([5]; animal models of neuropathic pain, compared to gabapentin) was 30 min. The “allodynia, repeat dosing” value ([5]; once daily 0.1, 1, 10 mg/kg po, all doses, 6 weeks post-STZ dosing) was “significantly reversed; also recorded: all dosessignificantly reduced”, the “dose levels producing reversal of mechanical allodynia” value ([5]; repeat dosing, 4 weeks post-dosing) was 4 weeks post-dosing, no dose and the “effect on body temperature” value [6] was “no noteworthy changes; also recorded: Compound 1 had no effect on body”. For the same compound, the MTD [7] was 0.3 mg/kg, the “effects on QTc” value ([8]; 1 mg/kg iv) was “doses up to 0.3 mg/kg, mild and reversible” and the lethality ([8]; 10 mg/kg iv) was 10 mg/kg was lethal. For the same compound, the “peak increase in heart rate” value ([8]; 1, 3, and 10 mg/kg iv) was “rate was 41 beats per minute”, the “peak increase in systolic blood pressure” value ([8]; 1, 3, and 10 mg/kg iv) was 58 mmHg; and the peak increase in heart and the “time in which effects resolved” value ([8]; 1 and 3 mg/kg iv) was 3 min. For the same compound, the “effects on QTc/ECG” value ([8]; 3 and 10 mg/kg iv) was “effects on QTc at 1 mg/kg, and severe”, the “effects on ECGs” value ([8]; doses up to 0.3 mg/kg iv) was “Compound 1 caused no effects on ECGs at” and the logD (Distribution coefficient) was < 1. The “C1 (peak concentration following 1st instillation)” value [9, 11] was 26.1 ng/mL, the “C2 (peak concentration following 2nd instillation)” value [9, 11] was 34.8 ng/mL and the “C3 (peak concentration following 3rd instillation)” value [9, 11] was 34.9 ng/mL. The “DN AUC0-t (dose-normalized)” value [9, 11] was 154 (ng*h/mL)/(mg), the “C1 (peak concentration following 1st instillation)” value ([9]; Female, Day 1, 3.6 mg/day (2%)) was 50.2 ng/mL and the “C2 (peak concentration following 2nd instillation)” value ([9]; Female, Day 1, 3.6 mg/day (2%)) was 119 ng/mL. The “C3 (peak concentration following 3rd instillation)” value ([9]; Female, Day 1, 3.6 mg/day (2%)) was 278 ng/mL, the “DN AUC0-t (dose-normalized)” value ([9]; Female, Day 1, 3.6 mg/day (2%)) was 174 (ng*h/mL)/(mg) and the “C1 (peak concentration following 1st instillation)” value [9, 12] was 326 ng/mL. The “C2 (peak concentration following 2nd instillation)” value [9, 12] was 481 ng/mL, the “C3 (peak concentration following 3rd instillation)” value [9, 12] was 329 ng/mL and the “DN AUC0-t (dose-normalized)” value [9, 12] was 386 (ng*h/mL)/(mg). For the same compound, the “C1 (peak concentration following 1st instillation)” value [9, 13] was 20.3 ng/mL, the “C2 (peak concentration following 2nd instillation)” value [9, 13] was 16.3 ng/mL and the “C3 (peak concentration following 3rd instillation)” value [9, 13] was 37.5 ng/mL. The “DN AUC0-t (dose-normalized)” value [9, 13] was 164 (ng*h/mL)/(mg), the “C1 (peak concentration following 1st instillation)” value ([9]; Female, Day 7, 3.6 mg/day (2%)) was 68.0 ng/mL and the “C2 (peak concentration following 2nd instillation)” value ([9]; Female, Day 7, 3.6 mg/day (2%)) was 79.9 ng/mL. For the same compound, the “C3 (peak concentration following 3rd instillation)” value ([9]; Female, Day 7, 3.6 mg/day (2%)) was 76.0 ng/mL, the “DN AUC0-t (dose-normalized)” value ([9]; Female, Day 7, 3.6 mg/day (2%)) was 93.5 (ng*h/mL)/(mg) and the “C1 (peak concentration following 1st instillation)” value [9, 14] was 218 ng/mL. The “C2 (peak concentration following 2nd instillation)” value [9, 14] was 224 ng/mL, the “C3 (peak concentration following 3rd instillation)” value [9, 14] was 210 ng/mL and the “DN AUC0-t (dose-normalized)” value [9, 14] was 137 (ng*h/mL)/(mg). For the same compound, the “C1 (peak concentration following 1st instillation)” value ([9]; Male, Day 1, 0.9 mg/day (0.5%)) was 51.9 ng/mL, the “C2 (peak concentration following 2nd instillation)” value ([9]; Male, Day 1, 0.9 mg/day (0.5%)) was 36.3 ng/mL and the “C3 (peak concentration following 3rd instillation)” value ([9]; Male, Day 1, 0.9 mg/day (0.5%)) was 54.2 ng/mL. For the same compound, the “C1 (peak concentration following 1st instillation)” value ([9]; Male, Day 1, 3.6 mg/day (2%)) was 86.4 ng/mL.
